The values that follow come from patent US7592326B2, “Method for stimulating the immune, inflammatory or neuroprotective response” (priority 2004, dated 2009).

One experiment concerns anti-ClfA IgG antibody. Put plainly: Adjuvant effect in vaccination with S. aureus ClfA (serum ELISA). The experiment is classed as in vivo, CD-1 female mice. As for the experimental part:
To evaluate the capacity of c-di-GMP to increase antibody production in the mouse (adaptive immune response), the cyclic dinucleotide was used as adjuvant for vaccination with S. aureus ClfA recombinant protein (a surface adhesion protein of S. aureus binding fibrinogen), as previously done for ClfA alone without adjuvant (Brouillette et al., 2002). Two groups of eight CD-1 female mice were vaccinated intramuscularly with 100 μl of saline containing 25 μg of ClfA. For one of the groups, the solution injected also contained 200 nmol of c-di-GMP. A volume of 50 ul was then injected into both quadriceps. This procedure was repeated two weeks after, for a second injection. Twelve days later, i.e. 26 days after the initial injections, blood samples were taken and incubated at 35° C. for an hour to allow coagulation, and then centrifuged at 13,000 g for 10 min at 4° C. Sera were harvested and kept at −20° C. until tested. The institutional ethics committee on animal experimentation of the Faculté des sciences of Université de Sherbrooke approved these experiments and were carried out following the guidelines of the Canadian Council on Animal Care.
Enzyme-linked immunosorbant assays (ELISA) were used to determine the presence of IgG antibodies against the ClfA antigen in the mouse serum, as previously described (Brouillette et al., 2002). Polystyrene Maxisorp 96-well plates (Nalge-Nunc International) were coated for 2 h with 50 μl of recombinant ClfA (domaine A) protein at a concentration of 10 μg/ml in carbonate/bicarbonate buffer at pH 9.6. Following saturation of the wells with a solution of powdered milk in PBS (5% w/v), overnight at 4° C., four-fold dilutions of sera (1/1000 to 1/64000) were added and incubated for 2 h at 35° C. and then overnight at 4° C. Biotinylated anti-mouse IgG (1/1000) was added and incubated for 2 h at 35° C. After 1 h of incubation with streptavidin-HRP (Amersham Pharmacia Biotech) diluted 1/500, 100 μl of Sure Blue TMB Peroxidase Substrate (KPL) was added. The enzyme reaction was stopped by the addition of 50 μl of 1N HCl after 6 min of incubation. Between each step, three washes with PBS-Tween 0.05% were carried out. The optical density (OD) was read on a plate reader (Bio-Tek Instruments) at 450 nm.
ELISA assays were carried out as for the total IgG assay but the secondary antibody was either mouse anti-IgG1-HRP or mouse anti-IgG2a-HRP (BD Pharmingen) and four-fold dilutions of sera form 1/250 to 1/16000 were assayed. Quantitation of mouse antibodies was achieved as for the total IgG assay but the development of coloration was allowed for 10 min. […] For the statistical analysis of ELISA results, the O.D. data for mice vaccinated with the c-di-GMP molecule as adjuvant were matched up to the corresponding data (isotype and dilution) where mice were injected with saline instead of c-di-GMP. One way analysis of variance (ANOVA) was used with the Bonferroni post-hoc test to account for multiple comparisons (Graphpad InStat software, version 3.06).

Another experiment relates to human DCs. Put plainly: Cytokine, chemokine and chemokine receptor expression in c-di-GMP-induced DC maturation (QPCR). The format is cell-based. On the procedure: Buffy coats were obtained from healthy human volunteers and fractionated over Histopaque-1077. The peripheral blood mononuclear cells (PBMC) layer was recovered and erythrocyte-depleted by incubation in red blood cell lysis buffer for 5 minutes at room temperature. PBMCs were cultured in complete medium (RPMI 1640, 1% L-glutamine, 1% penicillin/streptomycin, and 10% low endotoxin FCS) for 2 hours in T75 flasks (Corning). Following incubation, nonadherent cells were removed by three washes with 1× PBS (Invitrogen, Carlsbad, Calif.). The remaining adherent cells were then cultured in complete medium supplemented with GM-CSF and IL-4 (50 ng/mL each). Human and murine IL-4 and GM-CSF were purchased from Peprotech (Rocky Hill, N.J.). On day 2 and day 4, the DC cultures received an additional dose of GM-CSF and IL-4 (50 ng/mL each). On day 5, non-adherent DC were harvested by gentle pipetting, counted, and plated in fresh medium containing GM-CSF and IL-4 (50 ng/mL each). On Day 6, some DC were matured by addition of 100 ng/ml LPS or 10-400 μM c-di-GMP for 1-24 hours.
Surface expression of various markers was assessed using CellQuest analysis software on a FACScalibur (Becton-Dickinson) flow cytometer. Surface expression was determined using the following FITC- and PE-conjugated antibodies: CD86-FITC (Research Diagnostics), CCR7-PE (R&D Systems), CD80-FITC, CD83-FITC, HLA-DR-FITC (BD Pharmingen). The isotype control antibodies were used accordingly in all experiments and were purchased from Pharmingen. Human DC were incubated in 1% human AB serum/PBS and were incubated with rat anti-CD16/CD32 (BD Phamingen) to block non-specific binding. Total RNA was extracted using the RNeasy kit according to the manufacturer's protocol (Qiagen). Briefly, after DNase I (Invitrogen) treatment, 1 μg of total RNA from each sample was used as template for the reverse transcription reaction. 50 ul of cDNA was synthesized using Oligo(dT)15, random hexamers, and multiscribe reverse transcriptase (Applied Biosystems). All samples were reverse transcribed under the same conditions (25° C. for 10 minutes, 48° C. for 30 minutes) and from the same reverse transcription master mix in order to minimize differences in reverse transcription efficiency. All oligonucleotide primers for QPCR were designed using Primer Express software 1.0 (PE Biosystems) and synthesized by Invitrogen. The 25 ul QPCR reaction contains 2 ul of cDNA, 12.5 ul of 2× SYBR Green master mix (Stratagene), and […] of sense and anti-sense primer. The reaction conditions were as follows: 50° C. for 2 minutes, 95° C. for 10 minutes then 40 cycles of 95° C. for 15 seconds and 60° C. for 1 minute. Emitted fluorescence for each reaction was measured during the annealing/extension phase, and amplification plots were analyzed using the MX4000 software version 3.0 (Stratagene). Quantity values (i.e., copies) for gene expression were generated by comparison of the fluorescence generated by each sample with standard curves of known quantities. Next, the calculated number of copies was divided by the number of copies of the housekeeping gene GAPDH.

Setting [1] is: serum dilution of 1/1000, FIG. 7B.

Regarding `Nc1nc(=O)c2ncn([C@@H]3OC4COP(=O)(O)O[C@H]5[C@@H](O)[C@H](n6cnc7c(=O)nc(N)[nH]c76)O[C@@H]5COP(=O)(O)OC4C3O)c2[nH]1` (stereo partly shown) [c-di-GMP, Bis(3′→5′)-cyclic diguanylic acid], in the experiment on anti-ClfA IgG antibody (serum dilution 1/16000, c-di-GMP treated group), the “ELISA optical density, IgG1 and IgG2a isotypes” value is “around 0.5”. In addition, the “ELISA optical density, total IgG” value in the experiment on anti-ClfA IgG antibody (serum dilution 1/64000, c-di-GMP treated group) is given as “around 0.5”. Further, in the experiment with anti-ClfA IgG antibody (setting [1]), the “increase of IgG1 (optical density ratio c-di-GMP/saline)” value was found to be 3.6 times, the “increase of IgG2a (optical density ratio c-di-GMP/saline)” value came to 208.9 times and the “increase of total IgG (optical density ratio c-di-GMP/saline)” value came to 7.7 times. Also, in the experiment with anti-ClfA IgG antibody (two i.m. injections, 200 nmol c-di-GMP + 25 μg ClfA, serum day 26, P<0.001), the “anti-ClfA IgG antibody titers compared with ClfA alone” value is “significantly higher”. In addition, the “mRNA expression of chemokines IL-8/CXCL8, MIG/CXCL9, IP-10/CXCL10, I-TAC/CXCL11, MCP-1/CCL2, MIP-1a/CCL3, MIP-1b/CCL4, RANTES/CCL5” value in the experiment on human DCs (200 uM, 1-24 hours) was “increased”. Also, the “mRNA expression of IFN-a, IL-1b, TNF, IFN-g and IL-12 p40” value in the experiment with human DCs (200 uM, FIG. 11A) is reported as “stimulated”. For the same compound, the “IL-8 and IP-10 protein production (ELISA of supernatants)” value in the experiment on human DCs (24 hours, data not shown) is recorded as “consistent with the mRNA results”. Also, in the experiment on human DCs (FIG. 11C), the “expression of CXCR4 and CCR7” value is on record as “upregulated”; the “expression of chemokine receptors CCR1 and CCR5” value is given as “downregulated”. In addition, the “induction of Th2 cytokines (IL-4, IL-5, IL-10, IL-13)” value with human DCs (human DCs) was “No evidence for the induction”. The “time of TNF-a peak following treatment” value with human DCs (returns to basal level after 24 hours) was 3 h.
